Laboratory results published in ChEMBL document CHEMBL3994622, “Design and synthesis of new RAF kinase-inhibiting antiproliferative quinoline derivatives. Part 2: Diarylurea derivatives” (Eur J Med Chem, 2017).

Tests used:
Format in all cases: functional
LOX IMVI [1] = assay: Growth inhibition of human LOXIMVI cells assessed as cell growth at 0.5 uM incubated for 48 hrs by sulforhodamine B assay relative to control; settings: read-out: Activity
HOP-92 [2] = assay: Growth inhibition of human HOP92 cells assessed as cell growth at 50 uM incubated for 48 hrs by sulforhodamine B assay relative to control; settings: HOP-92, 48 h, read-out: Activity
MCF7 = assay: Growth inhibition of human MCF7 cells assessed as cell growth at 0.005 uM incubated for 48 hrs by sulforhodamine B assay relative to control; settings: MCF7, 48 h, read-out: Activity
K562 [3] = assay: Growth inhibition of human K562 cells assessed as cell growth at 0.005 uM incubated for 48 hrs by sulforhodamine B assay relative to control; settings: K562, 48 h, read-out: Activity
BT-549 = assay: Growth inhibition of human BT549 cells assessed as cell growth at 0.005 uM incubated for 48 hrs by sulforhodamine B assay relative to control; settings: BT-549, 48 h, read-out: Activity
A549 = assay: Growth inhibition of human A549/ATCC cells assessed as cell growth at 0.5 uM incubated for 48 hrs by sulforhodamine B assay relative to control; settings: A549, 48 h, read-out: Activity
TK-10 = assay: Growth inhibition of human TK10 cells assessed as cell growth at 0.05 uM incubated for 48 hrs by sulforhodamine B assay relative to control; settings: TK-10, 48 h, read-out: Activity
HOP-92 [4] = assay: Growth inhibition of human HOP92 cells assessed as cell growth at 5 uM incubated for 48 hrs by sulforhodamine B assay relative to control; settings: HOP-92, 48 h, read-out: Activity
NCI-H522 = assay: Growth inhibition of human NCI-H522 cells assessed as cell growth at 0.5 uM incubated for 48 hrs by sulforhodamine B assay relative to control; settings: NCI-H522, 48 h, read-out: Activity
A498 = assay: Growth inhibition of human A498 cells assessed as cell growth at 0.05 uM incubated for 48 hrs by sulforhodamine B assay relative to control; settings: A498, 48 h, read-out: Activity
Malme-3M = assay: Growth inhibition of human MALME-3M cells assessed as cell growth at 0.005 uM incubated for 48 hrs by sulforhodamine B assay relative to control; settings: read-out: Activity
OVCAR-4 = assay: Growth inhibition of human OVCAR4 cells assessed as cell growth at 0.5 uM incubated for 48 hrs by sulforhodamine B assay relative to control; settings: OVCAR-4, 48 h, read-out: Activity
SF-295 = assay: Growth inhibition of human SF295 cells assessed as cell growth at 50 uM incubated for 48 hrs by sulforhodamine B assay relative to control; settings: SF-295, 48 h, read-out: Activity
SW-620 = assay: Growth inhibition of human SW620 cells assessed as cell growth at 0.05 uM incubated for 48 hrs by sulforhodamine B assay relative to control; settings: SW-620, 48 h, read-out: Activity
OVCAR-5 = assay: Growth inhibition of human OVCAR5 cells assessed as cell growth at 50 uM incubated for 48 hrs by sulforhodamine B assay relative to control; settings: OVCAR-5, 48 h, read-out: Activity
HCT-116 [5] = assay: Growth inhibition of human HCT116 cells assessed as cell growth at 0.05 uM incubated for 48 hrs by sulforhodamine B assay relative to control; settings: HCT-116, 48 h, read-out: Activity
RXF 393 = assay: Growth inhibition of human RXF393 cells assessed as cell growth at 50 uM incubated for 48 hrs by sulforhodamine B assay relative to control; settings: RXF 393, 48 h, read-out: Activity
SN12C = assay: Growth inhibition of human SN12C cells assessed as cell growth at 5 uM incubated for 48 hrs by sulforhodamine B assay relative to control; settings: read-out: Activity
U-251 = assay: Growth inhibition of human U251 cells assessed as cell growth at 50 uM incubated for 48 hrs by sulforhodamine B assay relative to control; settings: U-251, 48 h, read-out: Activity
HL-60(TB) = assay: Growth inhibition of human HL-60(TB) cells assessed as cell growth at 0.5 uM incubated for 48 hrs by sulforhodamine B assay relative to control; settings: HL-60, 48 h, read-out: Activity
T47D = assay: Growth inhibition of human T47D cells assessed as cell growth at 0.05 uM incubated for 48 hrs by sulforhodamine B assay relative to control; settings: read-out: Activity
PC-3 [6] = assay: Growth inhibition of human PC3 cells assessed as cell growth at 0.5 uM incubated for 48 hrs by sulforhodamine B assay relative to control; settings: PC-3, 48 h, read-out: Activity
PC-3 [7] = assay: Growth inhibition of human PC3 cells assessed as cell growth at 50 uM incubated for 48 hrs by sulforhodamine B assay relative to control; settings: PC-3, 48 h, read-out: Activity
MOLT-4 = assay: Growth inhibition of human MOLT4 cells assessed as cell growth at 0.005 uM incubated for 48 hrs by sulforhodamine B assay relative to control; settings: MOLT-4, 48 h, read-out: Activity
KM12 [8] = assay: Growth inhibition of human KM12 cells assessed as cell growth at 5 uM incubated for 48 hrs by sulforhodamine B assay relative to control; settings: KM12, 48 h, read-out: Activity
HCT-116 [9] = assay: Growth inhibition of human HCT116 cells assessed as cell growth at 0.5 uM incubated for 48 hrs by sulforhodamine B assay relative to control; settings: HCT-116, 48 h, read-out: Activity
K562 [10] = assay: Growth inhibition of human K562 cells assessed as cell growth at 0.5 uM incubated for 48 hrs by sulforhodamine B assay relative to control; settings: K562, 48 h, read-out: Activity
KM12 [11] = assay: Growth inhibition of human KM12 cells assessed as cell growth at 0.05 uM incubated for 48 hrs by sulforhodamine B assay relative to control; settings: KM12, 48 h, read-out: Activity
SNB-19 = assay: Growth inhibition of human SNB19 cells assessed as cell growth at 5 uM incubated for 48 hrs by sulforhodamine B assay relative to control; settings: SNB-19, 48 h, read-out: Activity
M14 = assay: Growth inhibition of human M14 cells assessed as cell growth at 0.5 uM incubated for 48 hrs by sulforhodamine B assay relative to control; settings: M14, 48 h, read-out: Activity
NCI-H23 = assay: Growth inhibition of human NCI-H23 cells assessed as cell growth at 0.05 uM incubated for 48 hrs by sulforhodamine B assay relative to control; settings: NCI-H23, 48 h, read-out: Activity
MDA-MB-468 [12] = assay: Growth inhibition of human MDA-MB-468 cells assessed as cell growth at 10 uM incubated for 48 hrs by sulforhodamine B assay relative to control; settings: MDA-MB-468, 48 h, read-out: Activity
MDA-MB-468 [13] = assay: Growth inhibition of human MDA-MB-468 cells assessed as cell growth at 1 uM incubated for 48 hrs by sulforhodamine B assay relative to control; settings: MDA-MB-468, 48 h, read-out: Activity
MDA-MB-468 [14] = assay: Growth inhibition of human MDA-MB-468 cells assessed as cell growth at 0.01 uM incubated for 48 hrs by sulforhodamine B assay relative to control; settings: MDA-MB-468, 48 h, read-out: Activity
LOX IMVI [15] = assay: Growth inhibition of human LOXIMVI cells assessed as cell growth at 3 uM incubated for 48 hrs by sulforhodamine B assay relative to control; settings: read-out: Activity

## COc1cc2cc(Oc3ccc(NC(=O)Nc4cccc(C(F)(F)F)c4)cc3)c(C)nc2cc1OC
LOX IMVI [1]
  growth at 0.5 µM: 97%
HOP-92 [2]
  growth at 50 µM: -74%
MCF7
  growth at 0.005 µM: 90%
K562 [3]
  growth at 0.005 µM: 102%
BT-549
  growth at 0.005 µM: 96%
A549
  growth at 0.5 µM: 86%
TK-10
  growth at 0.05 µM: 95%
HOP-92 [4]
  growth at 5 µM: -10%
NCI-H522
  growth at 0.5 µM: 90%
A498
  growth at 0.05 µM: 106%
Malme-3M
  growth at 0.005 µM: 94%
OVCAR-4
  growth at 0.5 µM: 99%
SF-295
  growth at 50 µM: -63%
SW-620
  growth at 0.05 µM: 98%
OVCAR-5
  growth at 50 µM: -44%
HCT-116 [5]
  growth at 0.05 µM: 93%
RXF 393
  growth at 50 µM: -69%
SN12C
  growth at 5 µM: 22%
U-251
  growth at 50 µM: -99%
HL-60(TB)
  growth at 0.5 µM: 112%
T47D
  growth at 0.05 µM: 101%
PC-3 [6]
  growth at 0.5 µM: 88%
PC-3 [7]
  growth at 50 µM: -65%
MOLT-4
  growth at 0.005 µM: 97%
KM12 [8]
  growth at 5 µM: 5%
HCT-116 [9]
  growth at 0.5 µM: 88%
K562 [10]
  growth at 0.5 µM: 93%
KM12 [11]
  growth at 0.05 µM: 89%
SNB-19
  growth at 5 µM: 24%
M14
  growth at 0.5 µM: 90%
NCI-H23
  growth at 0.05 µM: 99%

## COc1cc2cc(Oc3ccc(NC(=O)Nc4cc(C(F)(F)F)cc(C(F)(F)F)c4)cc3)c(C)nc2cc1OC
MDA-MB-468 [12]
  growth at 10 µM: -36%
MDA-MB-468 [13]
  growth at 1 µM: 53%
MDA-MB-468 [14]
  growth at 0.01 µM: 101%

## COc1cc2cc(Oc3ccc(NC(=O)Nc4ccc(Cl)c(C(F)(F)F)c4)cc3)c(C)nc2cc1OC
LOX IMVI [15]
  growth at 3 µM: 12%
